Measurements as given in patent US10517946B2, “Polyelectrolyte multilayers assembled from immune signal compounds” (University of Maryland, College Park, priority 2015, dated 2019).

Columns and labels:
[1] = target: T1, TLR3 (Mus musculus, UniProt Q99MB1); experiment: TLR3 signaling in HEK-Blue mTLR3 cells (AuNP iPEMs); format: cell-based; conditions: 16 hours, absorbance 625 nm
T1 construct: host or cells: HEK-Blue mTLR3 (HEK293-derived reporter cells)
T1 sequence (Q99MB1 26-905): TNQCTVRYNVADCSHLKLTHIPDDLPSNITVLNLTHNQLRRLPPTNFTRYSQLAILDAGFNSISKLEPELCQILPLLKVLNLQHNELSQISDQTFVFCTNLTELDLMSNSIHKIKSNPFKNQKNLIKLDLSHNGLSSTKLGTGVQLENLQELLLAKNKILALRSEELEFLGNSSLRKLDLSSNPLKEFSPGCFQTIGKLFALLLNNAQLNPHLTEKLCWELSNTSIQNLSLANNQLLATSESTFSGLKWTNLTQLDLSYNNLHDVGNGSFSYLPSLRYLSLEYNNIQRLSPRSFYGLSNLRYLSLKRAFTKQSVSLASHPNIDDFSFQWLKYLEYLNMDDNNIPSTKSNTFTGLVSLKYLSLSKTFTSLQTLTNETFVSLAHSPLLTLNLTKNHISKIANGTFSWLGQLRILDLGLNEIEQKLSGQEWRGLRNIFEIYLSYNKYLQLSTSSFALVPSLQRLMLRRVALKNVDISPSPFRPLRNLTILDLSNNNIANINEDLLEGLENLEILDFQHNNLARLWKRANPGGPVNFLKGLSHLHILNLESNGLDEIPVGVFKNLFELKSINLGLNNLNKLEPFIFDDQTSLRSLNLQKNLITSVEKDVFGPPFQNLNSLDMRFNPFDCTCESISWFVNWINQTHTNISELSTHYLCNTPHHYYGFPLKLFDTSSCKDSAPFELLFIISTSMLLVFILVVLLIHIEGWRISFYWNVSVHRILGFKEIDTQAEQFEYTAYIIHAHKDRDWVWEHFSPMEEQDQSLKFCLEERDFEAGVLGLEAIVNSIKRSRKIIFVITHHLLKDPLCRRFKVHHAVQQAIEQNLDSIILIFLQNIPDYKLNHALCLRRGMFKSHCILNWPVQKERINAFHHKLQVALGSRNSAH
Description: TLR3 signaling: TLR3 activity was assessed using HEK-Blue mTLR3 cells (Invivogen). Cells were seeded at a concentration of 5.0×10^4 cells per well, followed by treatment with Pam3CSK4 (0.2 μg/mL), LPS (1.0 μg/mL), polyIC (10 μg/mL), C-ODN (5 μg/mL), SIIN peptide (5 μg/mL), AuNPs (1.9×10^−2 mg/well), AuNP-(C-ODN/SIIN*)2 (80 μg/mL), or AuNP-(polyIC/SIIN*)2 (80 μg/mL). After 16 hours the absorbance was read at 625 nm using a UV/Vis platereader (Molecular Devices).

[2] = test system: splenic CD11c+ DCs from B6 mice; experiment: Presentation of SIINFEKL via MHC-I by DCs; format: cell-based, mouse; conditions: anti-SIIN/MHC-I antibody
Description: DC activation and antigen presentation: […] After incubation with iPEM-coated AuNPs, DCs were washed twice with PBS+1% BSA, then blocked in anti-CD16/CD32 (Fcγ III/II receptor) (25× dilution, BD Biosciences) for 15 min at room temperature. The cells were then stained with antibodies for CD80 (FITC), CD86 (AmCyan-A), and CD40 (PE). To quantify presentation of SIINFEKL (SEQ ID NO:15) via the MHC-I pathway, cells were stained with a PE-Cy7 labeled antibody (BioLegend) against anti-mouse H-2Kb bound to OVA257-264 (SIINFEKL (SEQ ID NO:15)). All antibodies were fluorescent conjugates and were used by staining for 20 min at a 1:300 dilution in PBS+1% BSA. Cells were then washed twice in PBS+1% BSA and resuspended in a DAPI solution for analysis by flow cytometry. The data analysis was performed with Flowjo (Treestar).

[3] = test system: primary DCs; format: cell-based, mouse
Description: Cell internalization studies: Association and uptake of coated AuNPs by DCs was characterized by flow cytometry (FACS CantoII, BD Bioscience) and confocal microscopy (Leica SP5X). For flow cytometry, CD11c^+ splenic DCs were seeded in 96 well plates at a concentration of 1.0×10^5 cells per well. Uncoated AuNPs or AuNPs-(polyIC-Cy5/SIIN*-FITC)2 were then added to each well in a volume of 25 μL. Two-fold serial dilutions were performed using a starting iPEM/AuNPs concentration of 1.9 mg/mL. Cells were then cultured for 16 h. After incubation, cells were washed twice by centrifugation and re-suspended in FACS buffer (PBS+1% BSA). The washed cells were finally resuspended in a DAPI solution (0.1% in PBS+1% BSA) to allow assessment of viability by flow cytometry (i.e., DAPI^− cells). Cells positive for FITC and Cy5 signals compared with negative controls were considered to have associated with iPEMs.

[4] = test system: OT-I CD8+ T cells; experiment: DC / OT-I CD8+ T cell co-culture, CFSE proliferation; format: cell-based, mouse; conditions: T cells co-cultured with treated DCs
Description: (§1) T cell co-culture, activation, and proliferation: […] Untreated cells were used as a negative control. After 48 h, T cells isolated from OT-I mice were stained with CellTrace™ CFSE cell proliferation reagent (5 μg/mL in cell culture medium) by incubation at room temperature for 5 min. T cells were then co-cultured with each DC sample by addition of 3.0×10^5 T cells per well. After an additional 48 h of incubation, cells were centrifuged (800 rcf for 5 min), the supernatants were collected for ELISA, and the cells were washed in PBS+1% FBS. Cells were then blocked as above and stained with anti-CD8a (APC) for 15 min at room temperature. Lastly, cells were washed twice and re-suspended in DAPI. T cell proliferation was determined by the mean fluorescence intensity (MFI) of CFSE signal among DAPI^−, CD8^+ cells compared with positive and negative controls.

[5] = test system: DC/OT-I T cell co-cultures; experiment: ELISA of cytokines in DC/T cell co-culture supernatants; format: cell-based, mouse; conditions: co-culture supernatant, SIIN-treated samples
Description: as §1, with “controls. ELISA: Cytokine levels in the supernatants collected from DCs/T cell co-cultures were analyzed by ELISA using mouse TNF, IFN-γ, and IL-1β ELISA reagents (BD Bioscience) according to the manufacturer's instructions. 10 μL of each supernatant was used in each test, and cytokine concentrations were quantified by comparison to standard curves prepared from known standards.” for “controls.”

Substance	TLR3 signaling [1]	DCs presenting SIIN via MHC-I [2]	viability of DCs relative to cells treated with LPS [3]	OT-I T cell proliferation (CFSE dilution) [4]	cytokine secretion [5]
Pam3CSK4	lack of signal				
Polyinosinic-polycytidylic acid [polyIC]		baseline levels	92.8%		
SIINFEKL (Ovalbumin peptide model antigen) [SIIN peptide]				proliferation of OT-I T cells	lack of cytokine secretion
lipopolysaccharide [LPS]	lack of signal	baseline levels			
